In paper PMC3130785, “Small Compound 6-O-Angeloylplenolin Induces Mitotic Arrest and Exhibits Therapeutic Potentials in Multiple Myeloma” (PLoS ONE, 2011):

Key:
Format in all cases: cell-based, human
[1] = tested on: normal PBMCs from 5 healthy volunteers; assay: MTT assay on normal PBMCs; conditions: 48 h
Source text: (§1) CD138+ cells from 7 MM patients were isolated with informed consent from BM mononuclear cells by using positive immunomagnetic column separation (Miltenyi Biotech, Auburn, CA). The purity of CD138+ cells is above 97% as determined by flow cytometry. BMSCs were generated from a MM patient-derived CD138-negative BM mononuclear cells cultured for 5 weeks. Peripheral blood mononuclear cells (PBMCs) from 5 healthy donors were separated by Ficoll-Hipaque density sedimentation.
(§2) U266, RPMI 8226 cells (1×10^4), primary CD138+ cells, PBMCs (5×10^4), and BMSCs (1×10^4) were cultured in 96-well dishes and incubated without or with 6-OAP at indicated concentration for 48 h. MM.1S and MM.1R cells (2×10^4) were seeded into 96-well dishes and pre-cultured for 24 h, then treated with 6-OAP for 48 h. Cell proliferation was determined by MTT assay. Cell viability was estimated by trypan blue dye exclusion.

U266 cells [2] = assay: Immunofluorescence analysis of microtubules (anti-α-tubulin); conditions: 5 to 7.5 µM for 24 h or 7.5 µM for 12 to 24 h
Procedure: Both control and 6-OAP-treated MM cells were plated on glass slides by centrifugation using a cytospin, air-dried for 5 min at room temperature, and fixed with 4% paraformaldehyde for 15 min. After a brief washing in PBS with 100 mM glycine, slides were blocked with 5% bovine serum albumin (BSA; Sigma) and 0.3% Triton X-100 in PBS for 30 min at room temperature. Microtubules were detected with indicated antibodies diluted 1∶50 in 5% BSA in PBS overnight at 4°C and FITC or rhodamine-conjugated secondary antibodies (Santa Cruz) diluted 1∶200 in 5% BSA in PBS for 1.5 h at 37°C. Cells were then washed three times with PBS. Nuclei were stained with DAPI (Sigma).
(§3) Figure 2 6-OAP induces mitotic arrest in MM cells. (A) U266 cells were treated with 6-OAP at 7.5 µM for 0, 24, 48 h and imaged by Leica DMI 400B microscope. (B) U266 cells were treated with 6-OAP at indicated concentrations for 48 h. Cell cycle distribution was determined by flow cytometry. (C) MM.1S cells were treated with 5 µM 6-OAP for 48 h. Cell cycle distribution was determined by flow cytometry. (D) U266 cells were treated with 6-OAP at 5 to 7.5 µM for 24 h (left panel) or at 7.5 µM for 12 to 24 h (right panel). For immunofluorescence analysis of microtubules, cells was stained with an anti-α-tubulin antibody to visualize microtubules (green) and DAPI to counter stained DNA (blue) and observed by confocal microscopy. […]

[3] = tested on: U266, RPMI 8226, MM.1S, and MM.1R cells; assay: Trypan blue exclusion assay; conditions: 6-OAP 5 to 7.5 µM
Procedure: as §2

U266 cells [4] = assay: Cell cycle distribution by flow cytometry; conditions: 5 to 10 µM for 48 h
Procedure: (§4) MM cells were synchronized to G1/S boundary by a double-thymidine block. Briefly, cells were treated with 2 mM thymidine (Sigma-Aldrich) for 16 h, released into fresh medium for 9 h and subjected again to thymidine for another 16 h and then exposed to 6-OAP for indicated time points. Cells were harvested, fixed with 70% cold ethanol, incubated with RNase, and stained with propidium iodide (PI) (Sigma-Aldrich). Cell cycle distribution was analyzed by flow cytometry and CellQuest software (Becton Dickson).
as §3, with “microscopy. (E) Indicated cells were treated with 6-OAP at indicated concentration for 24 h, lysed, and Western blotting was performed using antibodies indicated.” for “microscopy.”

MM.1S cells = assay: Cell cycle distribution by flow cytometry; conditions: 5 to 10 µM for 48 h
Procedure: as §4
as §3, with “microscopy. (E) Indicated cells were treated with 6-OAP at indicated concentration for 24 h, lysed, and Western blotting was performed using antibodies indicated.” for “microscopy.”

[5] = tested on: CD138+ primary cells harvested from 7 MM patients; assay: MTT assay on primary MM cells
Source text: as §1, §2

SMILES: CC=C(C)C(=O)OC1C2C(CC(C)C3C=CC(=O)C31C)OC(=O)C2C (stereo not drawn) [6-OAP, 6-O-angeloylplenolin]
- growth of normal PBMCs [1]: did not drastically affect the growth
- cellular microtubule network / mitotic spindle (U266 cells [2]): cellular microtubules assembled to form mitotic spindle
- cell growth (trypan blue exclusion) [3]: markedly inhibited cell growth
- cells in G2/M phase (U266 cells [4]): accumulation
- cells in G2/M phase (MM.1S cells): accumulation
- cell growth of CD138+ primary cells [5]: suppressed cell growth
